Experimental data: patent US20220332839A1, “USE OF PRG4 TO TREAT CANCER” (Lubris LLC, priority 2019, published 2022)

System: lubricin (PRG4) mRNA
Assay: PRG4 mRNA expression in CAFs and ex vivo HCC specimens
Format: cell-based, human
Conditions: 48 hours; CAFs (p<0.01) and HCC samples (p<0.05)
Procedure: RNA extraction and cDNA synthesis: […] of frozen ex-vivo treated HCC tissues were ground with a mortar-pestle in the presence of liquid nitrogen until a thin powder was obtained. The ground tissues were lysed with 0.5-1 ml of RLT buffer+1% (BME) and then processed according to the manufacturer's recommendations (RNeasy kit, Qiagen). […] The obtained RNA was assayed for quality and concentration using the NanoDrop 2000/2000c (Thermo Fisher Scientific). cDNA was synthetized using the High Capacity cDNA reverse transcription kit (Thermo Fisher Scientific), according to relative datasheet.
Real time PCR: One ng/μl of cDNA was used in total 20 μl reaction mix in the presence of 500 nM of each forward and reverse primer referred to a specific gene of interest, and 2×SYBR green master mix (Bio-Rad). The reaction was conducted in a CFX96 Touch Real-Time Detection System (Bio-Rad).
CAFs isolation: Immediately after surgical resection, HCC tumoral and peritumoral specimens were minced into 0.5-1 cm pieces and left in MACS Tissue Storage Solution (Miltenyi Biotec). The tissues were then further cut into smaller size pieces (1-2 mm), washed three times in Hanks balanced salt solution (HBSS), and then incubated in HBSS in the presence of type IV collagenase (Thermo Fisher Scientific) and 3 mM CaCl2 at 37° C. under gentle rotation for 4 hours. At the end of this step, the dissociation was mechanically facilitated by pipetting up-down the digested tissues with a large size orifice 50 ml pipette. The floating cells were collected and washed three times with HBSS and seeded in normal culture conditions in IMDM+20% FBS. The decanted, partially digested tissue specimens were subjected to a second round of digestion (as previously described). The resulting dissociated cells were washed with HBSS and cultured in IMDM+20% FBS. […] The presence of minimal contaminating non-fibroblastic cells (mostly cancerous hepatocytes, cholangiocytes and macrophages) was evaluated using antibodies to EpCAM, CD45, and CD11b.

Substance: TGFβ: recombinant human mature transforming growth factor beta (R&D systems) [reference compound]
- expression of lubricin mRNA: significantly enhanced the expression of lubricin
